Laboratory results reported in patent US9713613B2, “Methods and compositions for the treatment of cancer and related hyperproliferative disorders” (priority 2007, dated 2017).

Test system: DU145 cells
Assay: Oligonucleotide microarray analysis (Affymetrix) of treated DU145 cells
Assay type: cell-based, human
Parameters: dose or concentration left out as unconfirmed
Settings: DU145, 6 hrs
Experimental: Gene expression profile comparison of the drug-treated and untreated cells might reveal specific molecular pathways affected by fatostatin A. DU145 cells were treated with fatostatin A or DMSO alone, and extracted mRNA samples were analyzed by Affimetrix DNA microarrays mapping 33,000 genes (Table 1).
(§1) DU145 prostate cancer cells were treated with […] of fatostatin A or DMSO alone in the presence of 1 μg/mL of IGF1 for 6 hrs in a serum free medium, total RNA was extracted in a TRI reagent (Molecular Research Center) and further isolated by RNeasy Mini Kit (Qiagen). Purified mRNA was analyzed in Baylor College of Medicine Microarray Core Facility by Affymetrix Human Genome U133 Plus 2.0 Array consisting of almost 45,000 probe sets representing more than 39,000 transcripts derived from approximately 33,000 well-substantiated human genes (Affymetrix, Inc.).
As described herein, fatostatin inhibits the insulin-induced adipogenesis of 3T3-L1 cells and the serum-independent growth of DU145 cells (Choi et al., 2003). Gene expression profiles of drug-treated and untreated cells were compared to gain information about specific molecular pathways affected by fatostatin. DU145 cells were treated with fatostatin or DMSO alone, and the extracted mRNA samples were analyzed by Affymetrix DNA microarrays mapping 33,000 genes. Of those genes (all of which are available at the National Center for Biotechnology Information's GenBank database on the world wide web), transcription levels of 63 genes decreased at least 35% in response to fatostatin treatment (Table 5). Thirty-four of the affected genes were directly associated with fat or sterol synthesis, such as genes encoding biosynthetic enzymes, and 18 of the affected genes have been reported to be controlled by SREBPs (Horton et al., 2003). Downregulation of the affected SREBP-responsive genes was confirmed by RT-PCR experiments.
as §1, with “Oligonucleotide microarray analysis. DU145” for “DU145”, “fatostatin” for “fatostatin A”

## CCCc1cc(-c2nc(-c3ccc(C)cc3)cs2)ccn1 [Compound 1, 2-propyl-4-(4-p-tolylthiazol-2-yl)pyridine]
:AA872727
  transcription level (fold), famesyl-diphosphate farnesyltransferase: 0.5359
A1189359
  transcription level (fold), mevalonate (diphospho) decarboxylase: 0.3299
AB032261
  transcription level (fold), stearoyl-CoA desaturase (delta-9-desaturase): 0.5743
AF096304
  transcription level (fold), Homo sapiens putative sterol reductanse SR-1 (TM7SF2): 0.6156
AF098865
  transcription level (fold), squalene epoxidase: 0.5
AF167438
  Decreased fold, Homo sapiens androgen-regulated short-chain dehydrogenaseneductase 1: 0.6598
  transcription level (fold), Homo sapiens androgen-regulated short-chain dehydrogenasereductase 1 (ARSDR1): 0.6598
AI670819
  transcription level (fold), Cullin 4B: 0.7071
AI861942
  transcription level (fold), low density lipoprotein receptor (familial hypercholesterolemia): 0.5743
AI971281
  transcription level (fold), ATP citrate lyase: 0.5743
AK000162
  Decreased fold, acetyl-CoA synthetase: 0.5359
  transcription level (fold), acetyl-CoA synthetase: 0.5359
AL049699
  transcription level (fold), malic enzyme 1, NADP(+)-dependent, cytosolic: 0.7071
AL518627
  transcription level (fold), 3-hydroxy-3-methylglutaryl-Coenzyme A reductase: 0.5
AL565516
  transcription level (fold), human glucose transporter pseudogene: 0.7071
AL565749
  transcription level (fold), Tubulin, beta 4: 0.6598
AL575074
  transcription level (fold), tubulin, alpha 1 (testis specific): 0.4665
AU144855
  transcription level (fold), cytochrome P450, subfamily I (dioxin-inducible), polypeptide 1: 0.5
AW084510
  transcription level (fold), lanosterol synthase (2,3-oxidosqualene-lanosterol cyclase): 0.5743
AW235051
  transcription level (fold), cytochrome b5 outer mitochondrial membrane precursor: 0.5743
B3855983
  transcription level (fold), acetyl-Coenzyme A carboxylase alpha: 0.5743
BC000245
  transcription level (fold), NAD(P) dependent steroid dehydrogenase-like; H105e3: 0.4665
BC000408
  transcription level (fold), acetyl-Coenzyme A acetyltransferase 2 (acetoacetyl Coenzyme A thiolase): 0.5743
BC000408.1
  Decreased fold, acetyl-Coenzyme A acetyltransferase 2: 0.5743
BC002654
  transcription level (fold), Homo sapiens, similar to tubulin, beta4: 0.6598
BC005247
  transcription level (fold), isopentenyl-diphosphate delta isomerase: 0.4665
BC005838
  transcription level (fold), Homo sapiens, tubulin, beta5: 0.6598
BE300521
  transcription level (fold), insulin induced gene 1: 0.3299
BF978872
  transcription level (fold), dihydrolipoamide S-acetyltransferase: 0.6598
BG252490
  transcription level (fold), DNAJ (Hsp40) homolog, subfamily B, member 4: 0.7071
D63807.1
  Decreased fold, lanosterol synthase: 0.6156
  transcription level (fold), lanosterol synthase (2,3-oxidosqualene-lanosterol cyclase): 0.6156
D80010.1
  transcription level (fold), lipin 1: 0.5
D85181.1
  Decreased fold, sterol-05-desaturase: 0.5
  transcription level (fold), sterol-C5-desaturase (fungal ERG3, delta-5-desaturase)-like: 0.5
D89053.1
  transcription level (fold), Fatty-acid-Coenzyme A ligase, long-chain 3: 0.7071
L32662.1
  transcription level (fold), prostaglandin E2 receptor: 0.5
NM000859.1
  Decreased fold, 3-hydroxy-3-methylglutaryl-Coenzyme A reductase (HMG CoA R): 0.5
NM 0002130.1
  Decreased fold, 3-hydroxy-3-methylglutaryl-Coenzyme A synthase 1 (HMG CoA S): 0.3536
NM002461.1
  Decreased fold, mevalonate decarboxylase (MVD): 0.3299
NM 003129.2
  Decreased fold, squalene epoxidase: 0.5
NM 005542.1
  Decreased fold, Insulin induced gene 1 (INSIG1): 0.3299
NM005931.1
  Decreased fold, fatty acid desaturase 1: 0.6598
NM006579.1
  Decreased fold, emopamil-bindingprotein (sterol isomerase): 0.6156
NM0019312
  Decreased fold, dihydrolipoamide S-acetyltransferase: 0.6598
NM_00010
  transcription level (fold), cytochrome P450, subfamily I (dioxin-inducible), polypeptide 1: 0.3299
NM_00043
  transcription level (fold), mevalonate kinase (mevalonic aciduria): 0.5
NM_00047
  transcription level (fold), nuclear receptor subfamily O, group B, member 1: 0.5359
NM_00052
  transcription level (fold), low density lipoprotein receptor (familial hypercholesterolemia): 0.6156
NM_00078
  transcription level (fold), cytochrome P450, 51 (lanosterol 14-alpha-demthylase): 0.5359
NM_00085
  transcription level (fold), 3-hydroxy-3-methylglutaryl-Coenzyme A reductase: 0.4665
NM_00109
  transcription level (fold), ATP citrate lyase: 0.7071
NM_00136
  transcription level (fold), dehydrocholesterol reductase: 0.5743
NM_00200, Hs.284244
  transcription level (fold), fibroblast growth factor 2 (basic): 0.5
NM_00200, Hs.77393
  transcription level (fold), farnesyl diphosphate synthase: 0.6598
NM_00213
  transcription level (fold), 3-hydroxy-3-methylglutaryl-Coenzyme a synthase 1 (soluble): 0.3536
NM_00243
  transcription level (fold), meningioma (disrupted in balanced translocation) 1: 0.6156
NM_00270
  transcription level (fold), Homo sapiens periplakin (PPL): 0.6156
NM_00352
  transcription level (fold), H2B histone family, member Q: 0.5
NM_00367
  transcription level (fold), basic heliz-loop-helix domain containing, class B, 2: 0.5743
NM_00381
  transcription level (fold), tumor necrosis factor (ligand) superfamily, member9: 0.5743
NM_000431.1
  Decreased fold, mevalonate kinase (MVK): 0.5
NM_000527.2
  Decreased fold, low density lipoprotein receptor (LDLR): 0.5743
NM_00547
  transcription level (fold), UDP-N-acetylglucosamine-2-epimerase-N-acetrylmannosamine kinase: 0.5743
NM_00589
  transcription level (fold), Isocitrate dehydrogenase 1 (NADP+), soluble: 0.7071
NM_00593
  transcription level (fold), fatty acid desaturase 1: 0.6598
NM_00603
  transcription level (fold), lipase, endothelial: 0.5359
NM_00654
  transcription level (fold), IGF-II mRNA-binding protein 3: 0.4665
NM_00657
  transcription level (fold), emopamil-binding protein (sterol isomerase): 0.6156
NM_00662
  transcription level (fold), serum-inducible kinase: 0.5743
NM_000664.1
  Decreased fold, acetyl-Coenzyme A carboxylase alpha: 0.5743
NM_001096.1
  Decreased fold, ATP citrate lyase: 0.5743
NM_01637
  transcription level (fold), hydroxysteroid (17-beta) dehydrogenase 7: 0.4665
NM_002004.1
  Decreased fold, farnesyl pyrophosphate syntlietase: 0.6598
NM_004457.2
  Decreased fold, fatty-acid-Coenzyme A ligase long chain 3: 0.7071
NM_004462.1
  Decreased fold, famesyl-diphosphate famesyltransferase 1: 0.5359
NM_005063.1
  Decreased fold, stearoyl-CoA desaturase (SCD): 0.5743
NM_014676
  transcription level (fold), seladin-1: 0.6598
NM_016371.1
  Decreased fold, hydroxysteroid (17-beta) dehydrogenase 7: 0.4665
NM_022977.1
  Decreased fold, fatty-acid-Coenzyme A ligase long chain 4: 0.7071
S70123.1
  transcription level (fold), low density lipoprotein receptor (familial hypercholesterolemia): 0.7071
U18197.1
  transcription level (fold), ATP citrate lyase: 0.5743
U40053
  transcription level (fold), cytochrome P450, 51 (lanosterol 14-alpha-demethylase): 0.4665
U59479.1
  transcription level (fold), pinin, desmosome associated protein: 0.5359
